Measured values taken from patent US12600701B2, “N-acylhydrazonic compounds, use in the treatment of amyloid and non-amyloid degenerative aggregopathies, and pharmaceutical composition” (FACULDADES CATÓLICAS, priority 2020, dated 2026).

Key:
[1] = Experimental octanol-water partition coefficient (log P); format: physicochemical; details: octanol / Tris buffer 10^−2 mol L^−1 pH 7.4, 37° C., triplicate
Experimental: Tris buffer 10^−2 mol L^−1 pH 7.4 was used as the aqueous phase. Both phases were prepared separately, and contained the hydrazone of interest at low concentrations (5×10^−5 mol L^−1). An ultraviolet/visible molecular absorption spectrum was acquired for each of the phases before mixing. The mixture was stirred at 37° C., protected from light. At the end of the incubation, the mixture was centrifuged for 10 minutes at 3000 rpm, and the layers were separated using pipettes. The concentrations in each phase were measured at the wavelength of greatest absorption of each hydrazone in the respective solvent, through calibration curves. Each compound was analyzed in triplicate and P was calculated as the average concentration ratio Co/Ca where Co is the concentration in the organic phase and Ca in the aqueous phase.
Experimental results were obtained using buffer with physiological pH, and the mixing and separation steps were performed at average human body temperature. This gives the experiment greater biological relevance compared to computational calculations. Even so, the values determined are in agreement with those calculated.

[2] = Stability in aqueous solution containing 1% DMSO (UV-Vis absorption); format: physicochemical; details: 1% DMSO/water, 5×10^−5 mol L^−1, 17° C., over 4 days
Experimental: Stability in aqueous solution containing 1% DMSO: Compounds were prepared at low concentrations (5×10^−5 mol L^−1) in a solution containing 1% DMSO in ultra-pure water. Absorption spectra were obtained between 200 and 800 nm in a molecular absorption spectrophotometer at regular intervals over 12 hours. A final measurement was performed after four days. The room temperature was maintained at 17° C. throughout the experiment.

[3] = Affinity constant for copper(II), Method of Continuous Variations (Job plot); format: binding
Experimental: Affinity constant for copper(II): The affinity constant of compound (IV) for copper(II) was determined using the Method of Continuous Variations, which consists of preparing mixtures of different molar fractions of ligand and metal, followed by measuring their UV-Vis absorbance.
From this information it is possible to calculate the complex formation constant which, for the compound of formula (IV), has a value of 5.66±0.08 at 25° C.

[4] = system: SynT-Sph1 aggregation in H4 cells; test: Cellular model of α-synuclein (SynT-Sph1) aggregation in H4 cells; format: cell-based, human
Experimental: The isoniazid-derived hydrazone of formula (IV) was evaluated in greater detail in a cellular model of α-synuclein aggregation in H4 cells. This model consists of the co-transfection of an α-synuclein construct containing the first 83 amino acids of the EGFP protein linked to its C-terminal portion (SynT) with the synphilin-1 protein (Sph1), resulting in positive inclusions for α-Syn which can be observed by fluorescence microscopy after immunostaining.

[5] = rats, intraperitoneal injection, HPLC detection in brain; earlier work of the group; cited from earlier work
healthy rats = details: earlier work of the group; cited from earlier work
[6] = system: mice with intracerebroventricular infusion of Aβ oligomers; details: earlier work of the group, cited from earlier work

Row | logP [1] | Compound | decrease in the intensity of the hydrazonic band [2] | complex formation constant with copper(II) ([3]; ML-type complex (1:1), 25° C.) | formation constant compared with clioquinol ([3]; clioquinol under similar conditions) | levels of α-Syn expression [4] | morphology of the aggregates ([4]; after treatment) | crossing of the blood-brain barrier [5] | acute toxicity (healthy rats) | defensive responses related to fear and anxiety ([6]; healthy mice) | short- and long-term memory damage induced by Aβ oligomers ([6]; mice, intracerebroventricular infusion of Aβ oligomers)
1 | 0.67 ± 0.03 | Cn1ccnc1/C=N/NC(=O)c1ccncc1 [(IV), 1-methyl-1H-imidazole-2-carboxaldehyde isonicotinoyl hydrazone] | less than 2% | 5.66±0.08 | approximately one thousand times lower | does not change | less compact after treatment |  |  |  | 
2 | 1.49 ± 0.13 | Cn1ccnc1/C=N/NC(=O)c1ccccc1 [(V), 1-methyl-1H-imidazole-2-carboxaldehyde benzoyl hydrazone] |  |  |  |  |  |  |  |  | 
3 |  | O=C(NN=Cc1ccc2cccc(O)c2n1)c1ccncc1 [INHHQ, 8-hydroxyquinoline-2-carboxaldehyde isonicotinoyl hydrazone] | approximately 12% |  |  |  |  | capable of crossing the blood-brain barrier | non-toxic | does not alter | capable of preventing
